Measured values: publication PMC7050258, “Inhibition of MGAT2 modulates fat‐induced gut peptide release and fat intake in normal mice and ameliorates obesity and diabetes in ob/ob mice fed on a high‐fat diet” (FEBS Open Bio, 2020)
Several values for one entry are separate records, joined by “and”; a condition that tells them apart may be missing. Equal values may be shown once.

What was measured:
rats fed a 35% fat diet = system: rats fed a 35% fat diet; design: method as in PMID 25857225; settings: cited from earlier work
HFD-fed ob/ob mice = HFD-fed ob/ob mice study; type: in vivo, mouse
Experimental: Male ob/ob mice were fed an HFD (D12451; Research Diets, Inc.) from 8 weeks of age to the end of the study. After 2 weeks of HFD feeding, the mice were divided into groups based on their body weight, food intake, glycated hemoglobin (GHb), and plasma biochemical parameters. […] Compounds were suspended in 0.5% methylcellulose. Body weight and food intake were monitored during the study. On day 34, blood was collected and GHb and plasma biochemical parameters were measured. In addition, body composition was analyzed by EchoMRI‐900 (Hitachi Aloka Medical, Ltd., Tokyo, Japan). On day 36, the mice in the vehicle‐ and CpdB‐treated group were individually placed in the metabolic chamber of an Oxymax system (Columbus Instruments, Columbus, OH, USA). After 3 h of adaptation, oxygen consumption (VO2) and carbon dioxide production (VCO2) were analyzed for 22 h (from 13:00 to 11:00). During the measurement, dosing of vehicle or CpdB was performed at 18:00. Respiratory quotient (RQ) and energy expenditure (EE) were calculated with the following formulas: RQ=VCO2/VO2 EEkcal/h=3.815+1.232×VCO2/VO2×VO2
Blood samples were collected from the tail or facial vein without anesthesia and centrifuged at 1500 g for 10 min at 4 °C to isolate the plasma. To prevent degradation of incretin hormone, blood samples were treated with not only heparin/aprotinin but also a dipeptidyl peptidase‐4 (DPP‐4) inhibitor. Plasma alanine aminotransferase […] levels were measured by an Autoanalyzer 7180 (Hitachi High‐Technologies Corporation, Tokyo, Japan). GHb was measured with an automated GHb analyzer (HLC‐723G8; Tosoh, Tokyo, Japan). Plasma insulin was measured with an ELISA kit (Shibayagi Co., Ltd., Gunma, Japan). Plasma levels of total GLP‐1 and total PYY were also measured with an ELISA kit (Wako Pure Chemicals).

rats = system: rats; design: method as in PMID 22301859; settings: cited from earlier work
C57BL/6J mice = assay: Food choice test (HFD vs LFD); type: in vivo, mouse; settings: overnight, CpdB 10 mg/kg oral, liraglutide 0.04 mg/kg sc
Experimental: The choice between HFD (D12451; Research Diets, Inc.) and low‐fat diet (LFD, 10% kcal fat, 3.8 kcal·g^−1; D124510B; Research Diets, Inc.) was assessed in C57BL/6J mice. Following habituation to normal chow, HFD and LFD were presented in separate containers simultaneously, and overnight food intake of each diet was monitored. The mice were divided into groups based on the data of food intake and body weight. Then, vehicle or CpdB (10 mg·kg^−1) was orally administered, and the overnight food intake of each diet was monitored. CpdB was suspended in 0.5% methylcellulose. As a positive control, liraglutide (0.04 mg·kg^−1) dissolved in 10% DMSO/saline was subcutaneously administered.

[1] = CpdB 30 mg/kg, pioglitazone 3 mg/kg oral once daily, mean
[2] = CpdB 30 mg/kg, pioglitazone 3 mg/kg oral once daily, single animal values
[3] = EchoMRI, day 34, CpdB 30 mg/kg, pioglitazone 3 mg/kg, mean
[4] = EchoMRI, day 34, CpdB 30 mg/kg, pioglitazone 3 mg/kg, single animal values
[5] = day 34, CpdB 30 mg/kg, pioglitazone 3 mg/kg oral once daily, mean ± SD, n=8

CC(C)(C)c1cc(C(C)(C)C)nc(N2CCn3c(nnc3-c3ccc(OC(F)(F)F)cc3)C2)n1 [JTP‐103237]
increase of plasma levels of PYY after lipid loading (rats fed a 35% fat diet): enhance the increase

CCc1ccc(CCOc2ccc(CC3SC(=O)NC3=O)cc2)nc1 (stereo not shown) [Pioglitazone, pioglitazone, reference compound]
Body weight change from initial, AVE (HFD-fed ob/ob mice; [1]): 30.48%
Cumulative food intake, AVE (HFD-fed ob/ob mice; [1]): 136.37 g
Body weight change from initial, individual animal (HFD-fed ob/ob mice; [2]): 29.04% and 29.60% and 25.91% and 30.72% and 29.56% and 32.63% and 37.29%
Cumulative food intake, individual animal (HFD-fed ob/ob mice; [2]): 144.84 g and 134.34 g and 122.14 g and 143.74 g and 138.07 g and 136.64 g and 133.11 g and 138.10 g
Body composition, Fat, AVE (HFD-fed ob/ob mice; [3]): 63.35%
Body composition, Lean, AVE (HFD-fed ob/ob mice; [3]): 36.65%
Body composition, Fat, individual animal (HFD-fed ob/ob mice; [4]): 62.74% and 63.31% and 66.38% and 62.25% and 63.50% and 61.77% and 61.53% and 65.34%
Body composition, Lean, individual animal (HFD-fed ob/ob mice; [4]): 33.62% and 37.75% and 36.50% and 38.23% and 38.47% and 37.26% and 36.69%
GHb, Pre (HFD-fed ob/ob mice; before dosing, mean ± SD, n=8): 5.9 ± 0.3%
Plasma AST, Pre (HFD-fed ob/ob mice; before dosing, mean ± SD, n=8): 314 ± 61 U·L^−1
Plasma insulin, Pre (HFD-fed ob/ob mice; before dosing, mean ± SD, n=8): 103 ± 29 ng/mL
ΔGHb, AVE (HFD-fed ob/ob mice; change 34 days after repeated dosing, CpdB 30 mg/kg, pioglitazone 3 mg/kg oral once daily, mean): -1.01%
ΔGHb, individual animal (HFD-fed ob/ob mice; change 34 days after repeated dosing, CpdB 30 mg/kg, pioglitazone 3 mg/kg, single animal values): -1.00% and -0.90% and -1.10% and -1.40% and -0.70% and -0.80%
GHb, Post (HFD-fed ob/ob mice; [5]): 4.9 ± 0.4 %
Plasma ALT, Post (HFD-fed ob/ob mice; [5]): 803 ± 132 U·L^−1
Plasma AST, Post (HFD-fed ob/ob mice; [5]): 733 ± 174 U·L^−1
Plasma insulin, Post (HFD-fed ob/ob mice; day 34, CpdB 30 mg/kg, pioglitazone 3 mg/kg oral once daily, nonfasting, mean ± SD, n=8): 30.8 ± 16 ng/mL

Liraglutide
intake of highly palatable diet (rats): predominantly reduce the intake of highly palatable diet
Food intake, energy intake of HFD, AVE (C57BL/6J mice; mean, N=5): 6.46 kcal
Food intake, energy intake of low-fat diet, AVE (C57BL/6J mice; mean, N=5): 0.24 kcal
Food intake, total energy intake, AVE (C57BL/6J mice; mean, N=5): 6.69 kcal
Food intake, energy intake of HFD, individual animal (C57BL/6J mice; single animal values): 6.02 kcal and 8.08 kcal and 6.16 kcal and 4.18 kcal and 7.85 kcal
Food intake, energy intake of low-fat diet, individual animal (C57BL/6J mice; single animal values): 0.00 kcal and 0.19 kcal and 0.34 kcal and 0.27 kcal and 0.38 kcal
Food intake, total energy intake, individual animal (C57BL/6J mice; single animal values): 6.02 kcal and 8.27 kcal and 6.50 kcal and 4.45 kcal and 8.23 kcal
